# In PubChem BioAssay (NCI):
#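 Five concentrations, 48 hours, 96-well plates. GI50 = concentration required for 50% inhibition of growth. TGI is the concentration that stops growth completely.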
# Experiments:
# Test in all cases: NCI anticancer screen, dose series, 48 h
# [1] = test system: SK-OV-3 ovarian
# [2] = test system: SW-620 colon
# [3] = test system: 786-0 renal
# [4] = test system: NCI-H522 lung
# [5] = test system: A549 NSCLC
# [6] = test system: HOP-92 NSCLC
# [7] = test system: MOLT-4 leukemia
# [8] = test system: HCT-15 colon
# [9] = test system: EKVX NSCLC
# [10] = test system: A498 renal
# [11] = test system: NCI/ADR-RES ovarian
# [12] = test system: CCRF-CEM leukemia
# [13] = test system: OVCAR-5 ovarian
# [14] = test system: NCI-H460 lung
# [15] = test system: OVCAR-8 ovarian
# [16] = test system: SK-MEL-5 melanoma
# [17] = test system: SNB-19 CNS
# [18] = test system: IGROV1 ovarian
# [19] = test system: PC-3 prostate
# [20] = test system: OVCAR-4 ovarian
# [21] = test system: BT-549 breast
# [22] = test system: SN12C renal
# [23] = test system: HOP-62 NSCLC
# [24] = test system: COLO 205 colon
# [25] = test system: K-562 leukemia
# [26] = test system: HCT-116 colon
# [27] = test system: HL-60(TB) leukemia
# [28] = test system: SK-MEL-28 melanoma
# [29] = test system: MDA-MB-435
# [30] = test system: RPMI-8226 leukemia
# [31] = test system: SR leukemia
# [32] = test system: UACC-257 melanoma
# [33] = test system: NCI-H226 lung
# [34] = test system: OVCAR-3 ovarian
# [35] = test system: M14 melanoma
# [36] = test system: MDA-MB-468 breast
# [37] = test system: MALME-3M melanoma
# [38] = test system: SF-268 CNS
# [39] = test system: KM12 colon
# [40] = test system: U251 CNS
# [41] = test system: SF-295 CNS
# [42] = test system: MCF7 breast
# [43] = test system: ACHN renal
# [44] = test system: RXF 393 renal
# [45] = test system: T-47D breast
# [46] = test system: SF-539 CNS
# [47] = test system: HCC-2998 colon
# [48] = test system: NCI-H23 lung
# [49] = test system: HT29 colon
# [50] = test system: TK-10 renal
# [51] = test system: MDA-MB-231 breast
# [52] = test system: CAKI-1 renal
# [53] = test system: HS 578T breast
# [54] = test system: SNB-75 CNS
# [55] = test system: SK-MEL-2 melanoma
# [56] = test system: UO-31 renal
# [57] = test system: UACC-62 melanoma
# [58] = test system: LOX IMVI melanoma
# [59] = test system: DU-145 prostate
smiles,measurement,setting,value
C/C(=N\N=C\c1cc([N+](=O)[O-])ccc1Cl)c1ccc2c(c1)Nc1ccccc1S2,GI50,[1],14.9 µM
same,TGI,[1],45.1 µM
same,GI50,[2],9.55 µM
same,TGI,[2],24.5 µM
same,GI50,[3],12.4 µM
same,TGI,[3],27.6 µM
same,GI50,[4],12.2 µM
same,TGI,[4],41 µM
same,GI50,[5],7.56 µM
same,TGI,[5],31.8 µM
same,GI50,[6],16.1 µM
same,TGI,[6],89.5 µM
same,GI50,[7],20.4 µM
same,TGI,[7],> 100 µM
same,GI50,[8],19.2 µM
same,TGI,[8],> 100 µM
same,GI50,[9],19.3 µM
same,TGI,[9],79.8 µM
same,GI50,[10],12.6 µM
same,TGI,[10],27.6 µM
same,GI50,[11],17.9 µM
same,TGI,[11],65.5 µM
same,GI50,[12],11.4 µM
same,TGI,[12],> 100 µM
same,GI50,[13],28.4 µM
same,TGI,[13],> 100 µM
same,GI50,[14],6.28 µM
same,TGI,[14],21.4 µM
same,GI50,[15],12.2 µM
same,TGI,[15],35.8 µM
same,GI50,[16],24.9 µM
same,TGI,[16],> 100 µM
same,GI50,[17],23.8 µM
same,TGI,[17],> 100 µM
same,GI50,[18],23.6 µM
same,TGI,[18],> 100 µM
same,GI50,[19],38.4 µM
same,TGI,[19],> 100 µM
same,GI50,[20],3.12 µM
same,TGI,[20],11.8 µM
same,GI50,[21],20.7 µM
same,TGI,[21],> 100 µM
same,GI50,[22],6.86 µM
same,TGI,[22],28.5 µM
same,GI50,[23],16.6 µM
same,TGI,[23],39.8 µM
same,GI50,[24],18.3 µM
same,TGI,[24],> 100 µM
same,GI50,[25],16.8 µM
same,TGI,[25],> 100 µM
same,GI50,[26],3.36 µM
same,TGI,[26],15.3 µM
same,GI50,[27],24.2 µM
same,TGI,[27],> 100 µM
same,GI50,[28],> 100 µM
same,TGI,[28],> 100 µM
same,GI50,[29],22.9 µM
same,TGI,[29],> 100 µM
same,GI50,[30],20.6 µM
same,TGI,[30],> 100 µM
same,GI50,[31],13.5 µM
same,TGI,[31],81 µM
same,GI50,[32],23.6 µM
same,TGI,[32],> 100 µM
same,GI50,[33],17.7 µM
same,TGI,[33],> 100 µM
same,GI50,[34],11.3 µM
same,TGI,[34],24 µM
same,GI50,[35],51.7 µM
same,TGI,[35],> 100 µM
same,GI50,[36],1.83 µM
same,TGI,[36],18.6 µM
same,GI50,[37],19.1 µM
same,TGI,[37],> 100 µM
same,GI50,[38],26.3 µM
same,TGI,[38],> 100 µM
same,GI50,[39],35.8 µM
same,TGI,[39],> 100 µM
same,GI50,[40],8.36 µM
same,TGI,[40],23.9 µM
same,GI50,[41],13.5 µM
same,TGI,[41],35.1 µM
same,GI50,[42],21.5 µM
same,TGI,[42],> 100 µM
same,GI50,[43],2.87 µM
same,TGI,[43],8.59 µM
same,GI50,[44],16.6 µM
same,TGI,[44],94.5 µM
same,GI50,[45],4.3 µM
same,TGI,[45],25.8 µM
same,GI50,[46],16.9 µM
same,TGI,[46],35.2 µM
same,GI50,[47],52.2 µM
same,TGI,[47],> 100 µM
same,GI50,[48],16.3 µM
same,TGI,[48],45 µM
same,GI50,[49],26 µM
same,TGI,[49],> 100 µM
same,GI50,[50],11.4 µM
same,TGI,[50],24.9 µM
same,GI50,[51],21.1 µM
same,TGI,[51],63 µM
same,GI50,[52],12.5 µM
same,TGI,[52],27.7 µM
same,GI50,[53],15 µM
same,TGI,[53],58.3 µM
same,GI50,[54],12.6 µM
same,TGI,[54],33.4 µM
same,GI50,[55],20.8 µM
same,TGI,[55],83.1 µM
same,GI50,[56],11.2 µM
same,TGI,[56],25.4 µM
same,GI50,[57],29 µM
same,TGI,[57],> 100 µM
same,GI50,[58],31.3 µM
same,TGI,[58],> 100 µM
same,GI50,[59],34.4 µM
same,TGI,[59],> 100 µM
CC1[C@H]2[C@H](C[C@H]3[C@@H]4CC=C5c6sc(Nc7ccccc7F)nc6CC[C@]5(C)[C@H]4CC[C@@]32C)O[C@]12CC[C@@H](C)CO2 (stereo partly specified),GI50,[1],> 100 µM
same,TGI,[1],> 100 µM
same,GI50,[2],76.1 µM
same,TGI,[2],> 100 µM
same,GI50,[3],85.4 µM
same,TGI,[3],> 100 µM
same,GI50,[4],34.7 µM
same,TGI,[4],> 100 µM
same,GI50,[5],> 100 µM
same,TGI,[5],> 100 µM
same,GI50,[6],42.3 µM
same,TGI,[6],> 100 µM
same,GI50,[7],25.7 µM
same,TGI,[7],> 100 µM
same,GI50,[8],56.1 µM
same,TGI,[8],> 100 µM
same,GI50,[9],> 100 µM
same,TGI,[9],> 100 µM
same,GI50,[10],> 100 µM
same,TGI,[10],> 100 µM
same,GI50,[11],> 100 µM
same,TGI,[11],> 100 µM
same,GI50,[12],5.1 µM
same,TGI,[12],> 100 µM
same,GI50,[13],> 100 µM
same,TGI,[13],> 100 µM
same,GI50,[14],91.1 µM
same,TGI,[14],> 100 µM
same,GI50,[15],> 100 µM
same,TGI,[15],> 100 µM
same,GI50,[16],31.7 µM
same,TGI,[16],> 100 µM
same,GI50,[17],> 100 µM
same,TGI,[17],> 100 µM
same,GI50,[18],> 100 µM
same,TGI,[18],> 100 µM
same,GI50,[19],26.3 µM
same,TGI,[19],> 100 µM
same,GI50,[20],> 100 µM
same,TGI,[20],> 100 µM
same,GI50,[21],26.4 µM
same,TGI,[21],> 100 µM
same,GI50,[22],> 100 µM
same,TGI,[22],> 100 µM
same,GI50,[23],> 100 µM
same,TGI,[23],> 100 µM
same,GI50,[24],62.1 µM
same,TGI,[24],> 100 µM
same,GI50,[25],26.6 µM
same,TGI,[25],> 100 µM
same,GI50,[26],37.3 µM
same,TGI,[26],> 100 µM
same,GI50,[27],30.1 µM
same,TGI,[27],> 100 µM
same,GI50,[28],> 100 µM
same,TGI,[28],> 100 µM
same,GI50,[29],95.4 µM
same,TGI,[29],> 100 µM
same,GI50,[30],35.5 µM
same,TGI,[30],> 100 µM
same,GI50,[31],24.8 µM
same,TGI,[31],> 100 µM
same,GI50,[32],54.1 µM
same,TGI,[32],> 100 µM
same,GI50,[33],> 100 µM
same,TGI,[33],> 100 µM
same,GI50,[34],> 100 µM
same,TGI,[34],> 100 µM
same,GI50,[35],86.7 µM
same,TGI,[35],> 100 µM
same,GI50,[36],25.1 µM
same,TGI,[36],> 100 µM
same,GI50,[37],> 100 µM
same,TGI,[37],> 100 µM
same,GI50,[38],> 100 µM
same,TGI,[38],> 100 µM
same,GI50,[39],> 100 µM
same,TGI,[39],> 100 µM
same,GI50,[40],> 100 µM
same,TGI,[40],> 100 µM
same,GI50,[41],53.3 µM
same,TGI,[41],> 100 µM
same,GI50,[42],38.2 µM
same,TGI,[42],> 100 µM
same,GI50,[43],> 100 µM
same,TGI,[43],> 100 µM
same,GI50,[44],9.09 µM
same,TGI,[44],66.7 µM
same,GI50,[45],25 µM
same,TGI,[45],> 100 µM
same,GI50,[46],80.9 µM
same,TGI,[46],> 100 µM
same,GI50,[47],> 100 µM
same,TGI,[47],> 100 µM
same,GI50,[48],59.5 µM
same,TGI,[48],> 100 µM
same,GI50,[49],60.3 µM
same,TGI,[49],> 100 µM
same,GI50,[50],> 100 µM
same,TGI,[50],> 100 µM
same,GI50,[51],> 100 µM
same,TGI,[51],> 100 µM
same,GI50,[52],> 100 µM
same,TGI,[52],> 100 µM
same,GI50,[53],> 100 µM
same,TGI,[53],> 100 µM
same,GI50,[54],31.2 µM
same,TGI,[54],> 100 µM
same,GI50,[55],> 100 µM
same,TGI,[55],> 100 µM
same,GI50,[56],> 100 µM
same,TGI,[56],> 100 µM
same,GI50,[57],43.1 µM
same,TGI,[57],> 100 µM
same,GI50,[58],67.1 µM
same,TGI,[58],> 100 µM
same,GI50,[59],> 100 µM
same,TGI,[59],> 100 µM
